Measurements taken from paper PMC8592419 (PLoS ONE, 2021).
Values after ≈ are worked out from the molar mass of the structure shown. Read-outs that look alike come from different tables or passages of the source. Where a SMILES comes first, the peptide text is derived from it.

How the values were obtained:
[1] = tested on: M. abscessus clinical isolate MAB09; assay: In vitro susceptibility testing (DST), CLSI broth microdilution; format: cell-based, M. abscessus subsp. abscessus; parameters: key to DST profile, interpretation, Day 3 / DST profile, interpretation, Day 5 / DST profile, interpretation, Day 14: S, susceptible; I, intermediate; R, resistant; conditions: for MIC: Mycobacteroides abscessus
Procedure: (§1) Drug susceptibility testing (DST) was performed according to the Clinical and Laboratory Standards Institute (CLSI) guidelines M24-A2 [42] using the broth microdilution method to determine the minimum inhibitory concentration (MIC). […] Colonies were grown at an adjusted cell density to a 0.5 McFarland standard and further diluted to 5×10^5 CFU/ml. […] These were then incubated at 37°C for 3, 5 and 14 days. The MIC was defined as the concentration in which no visible growth was observed. The results were interpreted according to the guidelines of CLSI. Inducible resistance was inferred by changes in MIC values from being susceptible at day 3 to resistant at day 14.

[2] = tested on: M. abscessus clinical isolate MAB02; assay: as above; format: cell-based, M. abscessus subsp. abscessus; parameters: key to DST profile, interpretation, Day 3 / DST profile, interpretation, Day 5 / DST profile, interpretation, Day 14: S, susceptible; I, intermediate; R, resistant; conditions: for MIC: Mycobacteroides abscessus
Procedure: as §1

[3] = tested on: M. abscessus clinical isolate MAB11; assay: as above; format: cell-based, M. abscessus subsp. abscessus; parameters: key to DST profile, interpretation, Day 3 / DST profile, interpretation, Day 5 / DST profile, interpretation, Day 14: S, susceptible; I, intermediate; R, resistant; conditions: for MIC: Mycobacteroides abscessus
Procedure: as §1

[4] = tested on: M. abscessus clinical isolate MAB01; assay: as above; format: cell-based, M. abscessus subsp. abscessus; parameters: key to DST profile, interpretation, Day 3 / DST profile, interpretation, Day 5 / DST profile, interpretation, Day 14: S, susceptible; I, intermediate; R, resistant; conditions: for MIC: Mycobacteroides abscessus
Procedure: as §1

[5] = tested on: M. abscessus clinical isolate MAB05; assay: as above; format: cell-based, M. abscessus subsp. abscessus; parameters: key to DST profile, interpretation, Day 3 / DST profile, interpretation, Day 5 / DST profile, interpretation, Day 14: S, susceptible; I, intermediate; R, resistant; conditions: for MIC: Mycobacteroides abscessus
Procedure: as §1

[6] = tested on: M. abscessus clinical isolate MAB08; assay: as above; format: cell-based, M. abscessus subsp. abscessus; parameters: key to DST profile, interpretation, Day 3 / DST profile, interpretation, Day 5 / DST profile, interpretation, Day 14: S, susceptible; I, intermediate; R, resistant; conditions: for MIC: Mycobacteroides abscessus
Procedure: as §1

[7] = tested on: M. abscessus clinical isolate MAB07; assay: as above; format: cell-based, M. abscessus subsp. abscessus; parameters: key to DST profile, interpretation, Day 3 / DST profile, interpretation, Day 5 / DST profile, interpretation, Day 14: S, susceptible; I, intermediate; R, resistant; conditions: for MIC: Mycobacteroides abscessus
Procedure: as §1

[8] = tested on: M. abscessus clinical isolate MAB10; assay: as above; format: cell-based, M. abscessus subsp. abscessus; parameters: key to DST profile, interpretation, Day 3 / DST profile, interpretation, Day 5 / DST profile, interpretation, Day 14: S, susceptible; I, intermediate; R, resistant; conditions: for MIC: Mycobacteroides abscessus
Procedure: as §1

[9] = tested on: M. abscessus clinical isolate MAB06; assay: as above; format: cell-based, M. abscessus subsp. abscessus; parameters: key to DST profile, interpretation, Day 3 / DST profile, interpretation, Day 5 / DST profile, interpretation, Day 14: S, susceptible; I, intermediate; R, resistant; conditions: for MIC: Mycobacteroides abscessus
Procedure: as §1

[10] = tested on: M. abscessus clinical isolate MAB04; assay: as above; format: cell-based, M. abscessus subsp. abscessus; parameters: key to DST profile, interpretation, Day 3 / DST profile, interpretation, Day 5 / DST profile, interpretation, Day 14: S, susceptible; I, intermediate; R, resistant; conditions: for MIC: Mycobacteroides abscessus
Procedure: as §1

[11] = tested on: M. abscessus clinical isolate MAB12; assay: as above; format: cell-based, M. abscessus subsp. massiliense; parameters: key to DST profile, interpretation, Day 3 / DST profile, interpretation, Day 5 / DST profile, interpretation, Day 14: S, susceptible; I, intermediate; R, resistant; conditions: for MIC: Mycobacteroides abscessus
Procedure: as §1

[12] = 72 h, day 3, read-out: DST profile, MIC value, Day 3
[13] = 120 h, day 5, read-out: DST profile, MIC value, Day 5
[14] = 336 h, day 14, read-out: DST profile, MIC value, Day 14

SMILES: CC[C@H]1OC(=O)[C@H](C)[C@@H](O[C@H]2C[C@@](C)(OC)[C@@H](O)[C@H](C)O2)[C@H](C)[C@@H](O[C@@H]2O[C@H](C)C[C@H](N(C)C)[C@H]2O)[C@](C)(OC)C[C@@H](C)C(=O)[C@H](C)[C@@H](O)[C@]1(C)O [CLA, Clarithromycin]
- MIC [1, 12]: 0.25 mg/L (≈ 0.334 µM)
- MIC [1, 13]: 8 mg/L (≈ 10.7 µM)
- MIC [1, 14]: 8 mg/L (≈ 10.7 µM)
- DST profile, interpretation, Day 3 ([1]; day 3, CLSI interpretation): S
- DST profile, interpretation, Day 5 ([1]; day 5, CLSI interpretation): R
- DST profile, interpretation, Day 14 ([1]; day 14, CLSI interpretation): R
- MIC [2, 12]: 1 mg/L (≈ 1.34 µM)
- MIC [2, 13]: 8 mg/L (≈ 10.7 µM)
- MIC [2, 14]: 64 mg/L (≈ 85.6 µM)
- DST profile, interpretation, Day 3 ([2]; day 3, CLSI interpretation): S
- DST profile, interpretation, Day 5 ([2]; day 5, CLSI interpretation): R
- DST profile, interpretation, Day 14 ([2]; day 14, CLSI interpretation): R
- MIC [3, 12]: 0.5 mg/L (≈ 0.668 µM)
- MIC [3, 13]: 16 mg/L (≈ 21.4 µM)
- DST profile, interpretation, Day 3 ([3]; day 3, CLSI interpretation): S
- DST profile, interpretation, Day 5 ([3]; day 5, CLSI interpretation): R
- DST profile, interpretation, Day 14 ([3]; day 14, CLSI interpretation): R
- MIC [4, 12]: 1020 mg/L (≈ 1370 µM)
- MIC [4, 13]: 1020 mg/L (≈ 1370 µM)
- MIC [4, 14]: 1020 mg/L (≈ 1370 µM)
- DST profile, interpretation, Day 3 ([4]; day 3, CLSI interpretation): R
- DST profile, interpretation, Day 5 ([4]; day 5, CLSI interpretation): R
- DST profile, interpretation, Day 14 ([4]; day 14, CLSI interpretation): R
- MIC [5, 12]: 4 mg/L (≈ 5.35 µM)
- MIC [5, 13]: 8 mg/L (≈ 10.7 µM)
- MIC [5, 14]: 16 mg/L (≈ 21.4 µM)
- DST profile, interpretation, Day 3 ([5]; day 3, CLSI interpretation): I
- DST profile, interpretation, Day 5 ([5]; day 5, CLSI interpretation): R
- DST profile, interpretation, Day 14 ([5]; day 14, CLSI interpretation): R
- MIC [6, 12]: 1 mg/L (≈ 1.34 µM)
- MIC [6, 13]: 2 mg/L (≈ 2.67 µM)
- MIC [6, 14]: 8 mg/L (≈ 10.7 µM)
- DST profile, interpretation, Day 3 ([6]; day 3, CLSI interpretation): S
- DST profile, interpretation, Day 5 ([6]; day 5, CLSI interpretation): S
- DST profile, interpretation, Day 14 ([6]; day 14, CLSI interpretation): R
- MIC [7, 12]: 4 mg/L (≈ 5.35 µM)
- MIC [7, 13]: 16 mg/L (≈ 21.4 µM)
- MIC [7, 14]: 16 mg/L (≈ 21.4 µM)
- DST profile, interpretation, Day 3 ([7]; day 3, CLSI interpretation): I
- DST profile, interpretation, Day 5 ([7]; day 5, CLSI interpretation): R
- DST profile, interpretation, Day 14 ([7]; day 14, CLSI interpretation): R
- MIC [8, 12]: 1020 mg/L (≈ 1370 µM)
- MIC [8, 13]: 1020 mg/L (≈ 1370 µM)
- MIC [8, 14]: 1020 mg/L (≈ 1370 µM)
- DST profile, interpretation, Day 3 ([8]; day 3, CLSI interpretation): R
- DST profile, interpretation, Day 5 ([8]; day 5, CLSI interpretation): R
- DST profile, interpretation, Day 14 ([8]; day 14, CLSI interpretation): R
- MIC [9, 12]: 0.5 mg/L (≈ 0.668 µM)
- MIC [9, 13]: 2 mg/L (≈ 2.67 µM)
- MIC [9, 14]: 32 mg/L (≈ 42.8 µM)
- DST profile, interpretation, Day 3 ([9]; day 3, CLSI interpretation): S
- DST profile, interpretation, Day 5 ([9]; day 5, CLSI interpretation): S
- DST profile, interpretation, Day 14 ([9]; day 14, CLSI interpretation): R
- MIC [10, 12]: 2 mg/L (≈ 2.67 µM)
- MIC [10, 13]: 16 mg/L (≈ 21.4 µM)
- MIC [10, 14]: 64 mg/L (≈ 85.6 µM)
- DST profile, interpretation, Day 3 ([10]; day 3, CLSI interpretation): S
- DST profile, interpretation, Day 5 ([10]; day 5, CLSI interpretation): R
- DST profile, interpretation, Day 14 ([10]; day 14, CLSI interpretation): R
- MIC [11, 12]: 1020 mg/L (≈ 1370 µM)
- MIC [11, 13]: 1020 mg/L (≈ 1370 µM)
- MIC [11, 14]: 1020 mg/L (≈ 1370 µM)
- DST profile, interpretation, Day 3 ([11]; day 3, CLSI interpretation): R
- DST profile, interpretation, Day 5 ([11]; day 5, CLSI interpretation): R
- DST profile, interpretation, Day 14 ([11]; day 14, CLSI interpretation): R

SMILES: CC[C@H](C)[C@H](NC(=O)[C@H](CCCCN)NC(=O)[C@H](CCCNC(=N)N)NC(=O)CNC(=O)[C@H](CC(C)C)NC(=O)[C@H](CO)NC(=O)[C@H](CCCNC(=N)N)NC(=O)[C@H](CC(C)C)NC(=O)CNC(=O)CN)C(=O)N[C@@H](CC(C)C)C(=O)N[C@@H](CCCNC(=N)N)C(=O)N[C@@H](C)C(=O)N[C@@H](Cc1c[nH]c2ccccc12)C(=O)N[C@@H](CCCCN)C(=O)N[C@@H](CCCCN)C(=O)N[C@@H](Cc1ccc(O)cc1)C(=O)O [S61] (H-GGLRSLGRKILRAWKKY-OH)
- MIC after 3 days, MAB01 and MAB03: < 50 mg/L
